Entries after “also recorded” stand apart in the source; their conditions may differ.

The values that follow come from article PMC8145144, “Transport of Dietary Anti-Inflammatory Peptide, γ-Glutamyl Valine (γ-EV), across the Intestinal Caco-2 Monolayer” (Nutrients, 2021).

One data set can be described thus: MTT cell viability assay. Type of data set: cell-based, human. Conditions: human, Caco-2 cells (differentiated, grown for 15 days), 10 mM, 2 h, read-out: survival rate (cell viability). On the procedure: (§1) A clear-bottom 96-well black plate (VWR, #29444-008) was seeded with Caco-2 cells (40,000 cells/well) and grown for 15 days in EMEM media (20% FBS and 1% Pen-Strep) to achieve differentiation of the cells. The MTT assay kit (Abcam, #ab211091) was used to test the cell-viability assay following the manufacturer’s guidelines, as described in the earlier study. For the time-course study, a concentration of 1 mM γ-EV was used for determining the cell toxicity, by incubating it on the Caco-2 cells for 2, 4, and 6 h. For the dose study, the cell toxicity of γ-EV was tested for different doses, such as 2.5, 3, 4, 5, and 10 mM, after incubating the peptide on the cells for 2 h. After the treatment period, the cell media was discarded and replaced with a mixture of 50 μL of the MTT reagent and 50 μL of serum-free EMEM media. After the incubation period of 3 h at 37 °C, the MTT-supplemented media was replaced with 150 μL of MTT solvent. Following that, the plates were incubated on an orbital shaker (200 rpm, 37 °C) (MaxQ 4450, Thermo Fischer Scientific, Waltham, MA, USA) for 15 min, in dark, after which the absorbance of the plate was read at 590 nm (Synergy H1 microplate reader, BioTek, Winooski, VT, USA). The background control readings were subtracted from each of the wells and the cell-viability percentage (%) was calculated using the formula cell viability % = (sample/control) × 100, where the control was cells with no γ-EV treatment, and the sample was the γ-EV treated cells.

Data set [1] deals with Caco-2 cells. Description: MTT cell viability assay. Type of data set: cell-based, human. As for the experimental part:
as §1

The subject of data set [2] is Caco-2 monolayer.
The subject of a further data set is PepT1. Description: in vitro. Type of data set: in vitro ADME, human. Conditions: human, Caco-2, Papp after Gly-Sar pretreatment. On the procedure:
(§2) The route of transport of γ-EV across Caco-2 monolayer cells was determined using 1 mM γ-EV transported for 2 h, following the same protocol as mentioned in Section 2.4. However, in this case, four transport inhibitors were used prior to γ-EV addition in the apical layer, to elucidate the mechanism of transport. Theaflavin 3′-gallate (TF3′G) (20 μM), a cell tight-junction enhancer, was added to the EMEM growth medium 24 h before the experiment. Wortmannin (a transcytosis inhibitor, 1 μM), cytochalasin D (a cell tight-junction disruptor, 0.5 μg/mL), and Gly-Sar (PepT1 transporter inhibitor, 25 mM) were added 30 min before γ-EV addition in the HBSS buffer (pH 6.5). After the treatment was over, the apical and basal layers were collected, and the concentration of γ-EV was analyzed and represented via Papp. For this study, some of the replicate inserts were used for harvesting the Caco-2 cells for analyzing the tight-junction proteins via Western immunoblotting, while some of the inserts were used for visualizing the tight-junction proteins through immunofluorescence.
(§3) LC-MS/MS was used to detect the γ-EV content after the transport study. The instrument used was the Shimadzu LC system (Nexera X2, Columbia, MD, USA), interfaced with a Sciex QTRAP 6500+ mass spectrometer (Redwood City, CA, USA), equipped with a TurboIonSpray (TIS) electrospray ion source (ESI). […] The mobile phases and gradient used were as previously described. Analyst software (version 1.6.3, Redwood City, CA, USA) was used for the sample acquisition control and data analysis. The manufacturer’s recommendations were used for tuning and calibration of the SCIEX QTRAP 6500+ mass spectrometer. The parameters for the ESI operation were as follows: 5500 V ion spray voltage; 500 °C source temperature; ion source gas 1, gas 2, and curtain gas, as 50, 50, and 25, respectively; and collision gas, high. The multiple reaction monitoring (MRM) transitions and the compound settings were previously optimized and described in [11]. An external standard curve, containing different concentrations of the peptide (γ-EV diluted in water), was prepared for the absolute quantification of the peptide. The standards were run alongside the samples (γ-EV in HBSS buffer) in triplicate. The linear range of the standard curve was from 0.016 to 10 μM, with a linear regression slope R^2 of 1 with a CV of <8% for all the dilution points.

The subject of a further data set is Caco-2 monolayer cells. Nature of the data set: in vitro. Type of data set: in vitro ADME, human. Conditions: Caco-2. On the procedure:
as §2, §3

Data set [3] is described as follows: in vitro. Format: in vitro ADME, human. Conditions: human. On the procedure: as §2, §3
Data set [4] can be described thus: in vitro. Conditions: human, Caco-2.
In data set [5] the test system is Caco-2 monolayer. Set-up: method as in PMID 32786865. Particulars: 1 mM γ-EV across Caco-2 cells, previous study; cited from earlier work.
In data set [6] the test system is Caco-2 cells. Conditions: cytochalasin D 0.5 μg/mL, across Caco-2 cells; cited from earlier work.

For the compound `CC(C)[C@H](NC(=O)CC[C@H](N)C(=O)O)C(=O)O` [γ-EV, γ-glutamyl valine], in the data set “MTT cell viability assay”, the viability at 2 h, 10 mM was determined as 21%. Besides, in the data set on Caco-2 cells [1] (1 mM, exposure 4 and 6 h), the cytotoxicity result is recorded as “not toxic; also recorded: No cytotoxicity”. The cytotoxicity result in the data set on Caco-2 cells [1] (10 mM, 2 h) is “cytotoxic”. The cytotoxicity entry in the data set with Caco-2 cells [1] (concentrations up to 5 mM, 2 h) is “nontoxic; also recorded: not toxic; also recorded: not cytotoxic”. For the same compound, in the data set on Caco-2 monolayer [2], the Papp range is on record as 1.5–2.5 × 10^−6 and the “change in rate of transport (Papp) vs 1 mM dose” value is on record as “did not have a significant change”. For the same compound, in the data set on PepT1, the Papp at 2 h, 1 mM was found to be 0.798 ×10⁻⁶ cm/s. In addition, the “decrease of Papp by Gly-Sar vs control” value with Caco-2 monolayer cells amounted to 48%. The apparent permeability coefficient (Papp) at 2 h, 1 mM in the data set “in vitro [3]” (Caco-2, Papp after TF3′G pretreatment) worked out at 0.875 ×10⁻⁶ cm/s. For the same compound, the apparent permeability (Papp) at 2 h, 1 mM in the data set “in vitro [3]” (Caco-2, Papp after cytochalasin D pretreatment) came to 4.36 ×10⁻⁶ cm/s. In addition, in the data set “in vitro [4]”, the Papp A→B at 2 h, 5 mM came out at 2.5 ×10⁻⁶ cm/s; the Papp A→B at 4 h, 1 mM was found to be 0.678 ×10⁻⁶ cm/s; the Papp A→B at 6 h, 1 mM stood at 0.746 ×10⁻⁶ cm/s; the Papp at 2 h, 1 mM stood at 1.56 ×10⁻⁶ cm/s. This compound gave a Papp at 2 h, 5 mM in “in vitro [4]” of 2.49 ×10⁻⁶ cm/s. In addition, the “apparent permeability coefficient (Papp)” value with Caco-2 monolayer [5] is 1.56 ± 0.7 ×10⁻⁶ cm/s.

Take HLPLP: the “increase of peptide transport by cytochalasin D” value with Caco-2 cells [6] is recorded as 65%.
